# Laboratory results taken from ChEMBL document CHEMBL1148862, “Evaluation of the anti-hepatitis C virus effect of novel potent, selective, and orally bioavailable JNK and VEGFR kinase inhibitors” (Bioorg Med Chem Lett, 2007).
# The source made the active and inactive calls. No cut-off for these calls is given here.
# Tests used:
# Hepatitis C virus [1] = experiment: Antiviral activity against HCV ET replicon with NS3 E1202G, T1280I mutation and NS4B K1846 mutation; assay type: functional, organism-based; details: Hepacivirus hominis
# Hepatitis C virus [2] = experiment: Antiviral activity against HCV in Huh7-Rep cells by luciferase assay; assay type: functional, organism-based, Hepacivirus hominis
# [3] = Cytotoxicity against MT4 cells by luciferase assay; assay type: cell-based; details: human
# [4] = Cytotoxicity against Huh7 cells by luciferase assay; assay type: cell-based, Huh-7; details: human
# [5] = tested on: Bovine viral diarrhea virus 1; experiment: Antiviral activity against BVDV upto 100 uM; assay type: functional, organism-based
# [6] = biological target: Mitogen-activated protein kinase 9 (Homo sapiens, UniProt P45984); experiment: Inhibition of human JNK2
# Mitogen-activated protein kinase 9, sequence (P45984 whole entry): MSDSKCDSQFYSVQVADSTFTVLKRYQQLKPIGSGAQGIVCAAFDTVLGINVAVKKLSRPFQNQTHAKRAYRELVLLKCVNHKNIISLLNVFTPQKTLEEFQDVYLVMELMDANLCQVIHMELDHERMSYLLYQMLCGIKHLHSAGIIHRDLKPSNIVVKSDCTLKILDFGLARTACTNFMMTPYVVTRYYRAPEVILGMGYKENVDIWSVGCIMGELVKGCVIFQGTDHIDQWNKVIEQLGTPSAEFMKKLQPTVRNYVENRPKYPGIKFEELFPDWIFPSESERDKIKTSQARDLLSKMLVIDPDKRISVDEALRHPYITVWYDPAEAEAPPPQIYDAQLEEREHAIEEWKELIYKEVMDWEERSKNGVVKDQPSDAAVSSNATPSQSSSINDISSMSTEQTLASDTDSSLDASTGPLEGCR
# [7] = biological target: Mitogen-activated protein kinase 10 (Homo sapiens, UniProt P53779); experiment: Inhibition of human JNK3
# [8] = biological target: Vascular endothelial growth factor receptor 1 (Homo sapiens, UniProt P17948); experiment: Inhibition of human VEGFR1
# Vascular endothelial growth factor receptor 1, sequence (P17948 whole entry): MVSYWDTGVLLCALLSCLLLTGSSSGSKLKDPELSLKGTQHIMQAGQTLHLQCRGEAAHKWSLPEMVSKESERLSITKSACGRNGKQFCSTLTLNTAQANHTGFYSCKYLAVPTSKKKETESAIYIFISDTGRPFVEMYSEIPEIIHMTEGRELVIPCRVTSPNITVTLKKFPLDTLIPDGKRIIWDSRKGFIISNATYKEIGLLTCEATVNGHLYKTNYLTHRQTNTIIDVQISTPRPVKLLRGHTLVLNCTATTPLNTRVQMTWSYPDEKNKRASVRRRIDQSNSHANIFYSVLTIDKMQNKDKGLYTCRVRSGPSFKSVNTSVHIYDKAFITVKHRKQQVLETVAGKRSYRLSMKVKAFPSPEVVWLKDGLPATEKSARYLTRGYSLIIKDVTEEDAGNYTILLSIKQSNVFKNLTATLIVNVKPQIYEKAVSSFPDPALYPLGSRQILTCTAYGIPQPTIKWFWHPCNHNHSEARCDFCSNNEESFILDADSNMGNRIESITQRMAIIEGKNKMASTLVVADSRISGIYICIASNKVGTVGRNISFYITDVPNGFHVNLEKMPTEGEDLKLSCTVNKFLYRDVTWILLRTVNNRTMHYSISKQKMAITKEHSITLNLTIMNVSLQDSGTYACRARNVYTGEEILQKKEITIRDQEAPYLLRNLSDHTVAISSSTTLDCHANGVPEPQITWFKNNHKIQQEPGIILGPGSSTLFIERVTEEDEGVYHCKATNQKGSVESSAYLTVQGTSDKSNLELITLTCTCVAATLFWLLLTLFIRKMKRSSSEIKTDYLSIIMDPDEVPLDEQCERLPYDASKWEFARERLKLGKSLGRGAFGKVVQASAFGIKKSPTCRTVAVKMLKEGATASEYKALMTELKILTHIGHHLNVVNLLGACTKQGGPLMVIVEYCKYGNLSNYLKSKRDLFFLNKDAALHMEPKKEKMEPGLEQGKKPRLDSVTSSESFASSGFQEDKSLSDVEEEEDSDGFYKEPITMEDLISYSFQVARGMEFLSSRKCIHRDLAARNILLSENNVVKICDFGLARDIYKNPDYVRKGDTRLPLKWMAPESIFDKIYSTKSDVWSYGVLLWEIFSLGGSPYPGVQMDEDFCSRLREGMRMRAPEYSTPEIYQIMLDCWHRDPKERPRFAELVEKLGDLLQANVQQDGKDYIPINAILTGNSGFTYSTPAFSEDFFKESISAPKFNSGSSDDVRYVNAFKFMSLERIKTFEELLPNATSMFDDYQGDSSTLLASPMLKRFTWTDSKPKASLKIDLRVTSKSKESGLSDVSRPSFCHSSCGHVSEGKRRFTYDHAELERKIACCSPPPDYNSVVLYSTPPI
# [9] = biological target: Vascular endothelial growth factor receptor 2 (Homo sapiens, UniProt P35968); experiment: Inhibition of human VEGFR2
# Vascular endothelial growth factor receptor 2, sequence (P35968 whole entry): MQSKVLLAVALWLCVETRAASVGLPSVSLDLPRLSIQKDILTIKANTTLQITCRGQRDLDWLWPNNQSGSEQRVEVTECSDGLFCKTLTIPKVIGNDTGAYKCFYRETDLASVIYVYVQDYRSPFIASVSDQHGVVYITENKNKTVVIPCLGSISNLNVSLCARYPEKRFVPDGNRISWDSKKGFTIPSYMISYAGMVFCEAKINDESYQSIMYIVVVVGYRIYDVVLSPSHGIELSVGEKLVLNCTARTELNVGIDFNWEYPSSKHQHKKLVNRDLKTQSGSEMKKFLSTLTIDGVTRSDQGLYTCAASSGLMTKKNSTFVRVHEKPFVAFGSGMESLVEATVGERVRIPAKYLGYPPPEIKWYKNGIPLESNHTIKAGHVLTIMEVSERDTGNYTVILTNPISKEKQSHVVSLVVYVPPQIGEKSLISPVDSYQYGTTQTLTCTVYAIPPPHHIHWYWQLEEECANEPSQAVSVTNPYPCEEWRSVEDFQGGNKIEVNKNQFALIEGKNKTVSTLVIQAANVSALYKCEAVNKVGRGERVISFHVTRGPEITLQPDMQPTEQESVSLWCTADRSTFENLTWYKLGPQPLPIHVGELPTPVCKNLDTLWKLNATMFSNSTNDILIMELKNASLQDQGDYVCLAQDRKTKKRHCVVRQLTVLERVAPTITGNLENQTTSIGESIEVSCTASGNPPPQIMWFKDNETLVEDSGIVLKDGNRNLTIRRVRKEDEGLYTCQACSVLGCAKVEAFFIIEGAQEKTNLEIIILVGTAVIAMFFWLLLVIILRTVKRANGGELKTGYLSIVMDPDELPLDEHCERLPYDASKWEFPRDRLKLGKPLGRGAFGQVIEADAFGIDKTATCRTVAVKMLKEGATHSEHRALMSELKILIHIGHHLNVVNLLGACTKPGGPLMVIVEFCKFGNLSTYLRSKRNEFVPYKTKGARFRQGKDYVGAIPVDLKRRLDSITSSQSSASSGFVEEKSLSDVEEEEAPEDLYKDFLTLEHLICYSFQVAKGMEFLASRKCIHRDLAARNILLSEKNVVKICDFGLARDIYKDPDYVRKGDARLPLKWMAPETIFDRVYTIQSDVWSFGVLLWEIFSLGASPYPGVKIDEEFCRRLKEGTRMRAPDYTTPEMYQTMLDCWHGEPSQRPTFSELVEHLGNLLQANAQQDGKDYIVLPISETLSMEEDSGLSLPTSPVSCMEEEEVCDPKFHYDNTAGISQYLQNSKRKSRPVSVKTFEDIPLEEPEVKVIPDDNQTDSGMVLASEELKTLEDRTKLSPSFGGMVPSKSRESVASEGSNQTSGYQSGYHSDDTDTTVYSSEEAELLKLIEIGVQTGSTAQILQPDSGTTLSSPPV
# [10] = biological target: Vascular endothelial growth factor receptor 3 (Homo sapiens, UniProt P35916); experiment: Inhibition of human VEGFR3
# Vascular endothelial growth factor receptor 3, sequence (P35916 whole entry): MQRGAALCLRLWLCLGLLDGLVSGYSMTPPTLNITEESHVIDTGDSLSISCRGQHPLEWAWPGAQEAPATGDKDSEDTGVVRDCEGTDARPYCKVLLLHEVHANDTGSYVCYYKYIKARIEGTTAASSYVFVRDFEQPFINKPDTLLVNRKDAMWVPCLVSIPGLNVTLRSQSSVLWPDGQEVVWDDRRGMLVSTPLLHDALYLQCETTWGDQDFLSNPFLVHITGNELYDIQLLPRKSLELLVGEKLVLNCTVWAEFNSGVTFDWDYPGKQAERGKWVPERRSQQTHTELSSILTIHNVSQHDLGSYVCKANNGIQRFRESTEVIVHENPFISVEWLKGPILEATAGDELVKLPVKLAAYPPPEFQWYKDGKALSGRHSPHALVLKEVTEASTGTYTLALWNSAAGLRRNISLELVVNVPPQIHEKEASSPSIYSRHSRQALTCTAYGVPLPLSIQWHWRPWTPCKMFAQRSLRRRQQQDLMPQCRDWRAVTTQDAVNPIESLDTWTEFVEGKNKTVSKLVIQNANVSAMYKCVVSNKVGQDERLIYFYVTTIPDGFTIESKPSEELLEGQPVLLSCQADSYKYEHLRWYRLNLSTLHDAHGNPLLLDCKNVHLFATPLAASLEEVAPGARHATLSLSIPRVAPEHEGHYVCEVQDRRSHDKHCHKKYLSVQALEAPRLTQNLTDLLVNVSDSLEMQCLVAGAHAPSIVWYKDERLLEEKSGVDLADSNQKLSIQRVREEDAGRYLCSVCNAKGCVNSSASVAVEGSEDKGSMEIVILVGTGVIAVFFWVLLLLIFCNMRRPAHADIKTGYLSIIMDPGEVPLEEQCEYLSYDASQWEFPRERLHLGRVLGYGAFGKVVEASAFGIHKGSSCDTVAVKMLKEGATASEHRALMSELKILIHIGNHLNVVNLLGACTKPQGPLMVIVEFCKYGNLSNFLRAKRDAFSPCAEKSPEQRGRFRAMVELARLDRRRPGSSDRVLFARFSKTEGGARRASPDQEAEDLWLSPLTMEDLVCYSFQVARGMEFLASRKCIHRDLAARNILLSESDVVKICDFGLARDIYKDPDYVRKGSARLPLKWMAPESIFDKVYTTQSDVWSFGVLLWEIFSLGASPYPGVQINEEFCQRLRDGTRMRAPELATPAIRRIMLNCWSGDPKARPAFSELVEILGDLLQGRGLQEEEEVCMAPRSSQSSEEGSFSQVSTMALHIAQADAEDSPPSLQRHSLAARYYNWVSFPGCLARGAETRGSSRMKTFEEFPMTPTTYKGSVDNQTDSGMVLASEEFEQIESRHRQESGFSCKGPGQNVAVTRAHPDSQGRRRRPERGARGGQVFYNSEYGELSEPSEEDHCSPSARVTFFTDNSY
# Hepatitis C virus [11] = experiment: Antiviral activity against HCV subgenomic 1a replicon upto 32 uM; assay type: functional, organism-based; details: Hepacivirus hominis; subtype 1a
# [12] = Drug level in Swiss SPF (CD1) mouse plasma at 20 mg/kg, po after 0.5 hrs; assay type: ADME, organism-based; parameters: dose 20 mg/kg, route oral
# [13] = Drug level in Swiss SPF (CD1) mouse heart at 20 mg/kg, po after 0.5 hrs; assay type: ADME, organism-based; parameters: dose 20 mg/kg, route oral; details: read-out: Drug uptake
# [14] = Drug level in Swiss SPF (CD1) mouse liver at 20 mg/kg, po after 0.5 hrs; assay type: ADME, organism-based; parameters: dose 20 mg/kg, route oral; details: read-out: Drug uptake
# [15] = Drug level in Swiss SPF (CD1) mouse plasma at 20 mg/kg, po after 1 hr; assay type: ADME, organism-based; parameters: dose 20 mg/kg, route oral
# [16] = Drug level in Swiss SPF (CD1) mouse heart at 20 mg/kg, po after 1 hr; assay type: ADME, organism-based; parameters: dose 20 mg/kg, route oral; details: read-out: Drug uptake
# [17] = Drug level in Swiss SPF (CD1) mouse liver at 20 mg/kg, po after 1 hr; assay type: ADME, organism-based; parameters: dose 20 mg/kg, route oral; details: read-out: Drug uptake
# [18] = Drug level in Swiss SPF (CD1) mouse plasma at 20 mg/kg, po after 2 hrs; assay type: ADME, organism-based; parameters: dose 20 mg/kg, route oral
# [19] = Drug level in Swiss SPF (CD1) mouse heart at 20 mg/kg, po after 2 hrs; assay type: ADME, organism-based; parameters: dose 20 mg/kg, route oral; details: read-out: Drug uptake
# [20] = Drug level in Swiss SPF (CD1) mouse plasma at 20 mg/kg, po after 4 hrs; assay type: ADME, organism-based; parameters: dose 20 mg/kg, route oral
# [21] = Drug level in Swiss SPF (CD1) mouse liver at 20 mg/kg, po after 2 hrs; assay type: ADME, organism-based; parameters: dose 20 mg/kg, route oral; details: read-out: Drug uptake
# [22] = Drug level in Swiss SPF (CD1) mouse heart at 20 mg/kg, po after 4 hrs; assay type: ADME, organism-based; parameters: dose 20 mg/kg, route oral; details: read-out: Drug uptake
# [23] = Drug level in Swiss SPF (CD1) mouse liver at 20 mg/kg, po after 4 hrs; assay type: ADME, organism-based; parameters: dose 20 mg/kg, route oral; details: read-out: Drug uptake
# [24] = Drug level in Swiss SPF (CD1) mouse plasma at 20 mg/kg, po after 8 hrs; assay type: ADME, organism-based; parameters: dose 20 mg/kg, route oral
# [25] = Drug level in Swiss SPF (CD1) mouse heart at 20 mg/kg, po after 8 hrs; assay type: ADME, organism-based; parameters: dose 20 mg/kg, route oral; details: read-out: Drug uptake
# [26] = Drug level in Swiss SPF (CD1) mouse liver at 20 mg/kg, po after 8 hrs; assay type: ADME, organism-based; parameters: dose 20 mg/kg, route oral; details: read-out: Drug uptake
# [27] = Drug level in Swiss SPF (CD1) mouse plasma at 20 mg/kg, po after 24 hrs; assay type: ADME, organism-based; parameters: dose 20 mg/kg, route oral
# [28] = Drug level in Swiss SPF (CD1) mouse heart at 20 mg/kg, po after 24 hrs; assay type: ADME, organism-based; parameters: dose 20 mg/kg, route oral; details: read-out: Drug uptake
# [29] = Cmax in Swiss SPF (CD1) mouse plasma at 20 mg/kg, po; assay type: ADME, organism-based; parameters: dose 20 mg/kg, route oral
# [30] = Cmax in Swiss SPF (CD1) mouse heart at 20 mg/kg, po; assay type: ADME, organism-based; parameters: dose 20 mg/kg, route oral
# [31] = Cmax in Swiss SPF (CD1) mouse liver at 20 mg/kg, po; assay type: ADME, organism-based; parameters: dose 20 mg/kg, route oral
# [32] = Tmax in Swiss SPF (CD1) mouse plasma at 20 mg/kg, po; assay type: ADME, organism-based; parameters: dose 20 mg/kg, route oral
# [33] = Tmax in Swiss SPF (CD1) mouse heart at 20 mg/kg, po; assay type: ADME, organism-based; parameters: dose 20 mg/kg, route oral
# [34] = Tmax in Swiss SPF (CD1) mouse liver at 20 mg/kg, po; assay type: ADME, organism-based; parameters: dose 20 mg/kg, route oral
# [35] = Half life in Swiss SPF (CD1) mouse plasma at 20 mg/kg, po after 2 to 8 hrs; assay type: ADME, organism-based; parameters: dose 20 mg/kg, route oral
# [36] = Half life in Swiss SPF (CD1) mouse heart at 20 mg/kg, po after 2 to 8 hrs; assay type: ADME, organism-based; parameters: dose 20 mg/kg, route oral
# [37] = Half life in Swiss SPF (CD1) mouse liver at 20 mg/kg, po after 2 to 8 hrs; assay type: ADME, organism-based; parameters: dose 20 mg/kg, route oral
# [38] = AUC (0 to 8 hrs) in Swiss SPF (CD1) mouse plasma at 20 mg/kg, po; assay type: ADME, organism-based; parameters: time < 8 hr, dose 20 mg/kg, route oral
# [39] = AUC (0 to 8 hrs) in Swiss SPF (CD1) mouse heart at 20 mg/kg, po; assay type: ADME, organism-based; parameters: time < 8 hr, dose 20 mg/kg, route oral
# [40] = AUC (0 to 8 hrs) in Swiss SPF (CD1) mouse liver at 20 mg/kg, po; assay type: ADME, organism-based; parameters: time < 8 hr, dose 20 mg/kg, route oral
# [41] = AUC (0 to infinity) in Swiss SPF (CD1) mouse plasma at 20 mg/kg, po; assay type: ADME, organism-based; parameters: time infinity, dose 20 mg/kg, route oral
# [42] = AUC (0 to infinity) in Swiss SPF (CD1) mouse heart at 20 mg/kg, po; assay type: ADME, organism-based; parameters: time infinity, dose 20 mg/kg, route oral
# [43] = AUC (0 to infinity) in Swiss SPF (CD1) mouse liver at 20 mg/kg, po; assay type: ADME, organism-based; parameters: time infinity, dose 20 mg/kg, route oral
# Hepatitis C virus [44] = experiment: Antiviral activity against HCV subgenomic 1b replicon upto 32 uM; assay type: functional, organism-based; details: Hepacivirus hominis; genotype 1b
# [45] = Inhibition of HCV NS5B polymerase; parameters: species or system Hepacivirus hominis
# [46] = Inhibition of HCV NS3/4A protease; parameters: species or system Hepacivirus hominis
# [47] = biological target: Mitogen-activated protein kinase 8 (Homo sapiens, UniProt P45983); experiment: Inhibition of JNK1
# Mitogen-activated protein kinase 8, sequence (P45983 whole entry): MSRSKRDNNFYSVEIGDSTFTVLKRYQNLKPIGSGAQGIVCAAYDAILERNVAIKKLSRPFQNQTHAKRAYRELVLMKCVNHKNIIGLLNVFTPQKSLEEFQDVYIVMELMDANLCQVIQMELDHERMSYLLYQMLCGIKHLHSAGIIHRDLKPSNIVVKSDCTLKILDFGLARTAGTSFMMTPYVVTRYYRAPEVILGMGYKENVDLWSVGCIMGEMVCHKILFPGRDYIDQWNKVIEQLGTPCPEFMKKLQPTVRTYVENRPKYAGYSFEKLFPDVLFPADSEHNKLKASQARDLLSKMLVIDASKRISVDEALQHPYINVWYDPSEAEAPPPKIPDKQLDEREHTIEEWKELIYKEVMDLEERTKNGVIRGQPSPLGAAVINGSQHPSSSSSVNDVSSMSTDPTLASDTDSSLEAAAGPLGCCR
# TGF-beta receptor type-1 = biological target: T1, TGF-beta receptor type-1 (Homo sapiens, UniProt P36897)
# T1 sequence (P36897 whole entry): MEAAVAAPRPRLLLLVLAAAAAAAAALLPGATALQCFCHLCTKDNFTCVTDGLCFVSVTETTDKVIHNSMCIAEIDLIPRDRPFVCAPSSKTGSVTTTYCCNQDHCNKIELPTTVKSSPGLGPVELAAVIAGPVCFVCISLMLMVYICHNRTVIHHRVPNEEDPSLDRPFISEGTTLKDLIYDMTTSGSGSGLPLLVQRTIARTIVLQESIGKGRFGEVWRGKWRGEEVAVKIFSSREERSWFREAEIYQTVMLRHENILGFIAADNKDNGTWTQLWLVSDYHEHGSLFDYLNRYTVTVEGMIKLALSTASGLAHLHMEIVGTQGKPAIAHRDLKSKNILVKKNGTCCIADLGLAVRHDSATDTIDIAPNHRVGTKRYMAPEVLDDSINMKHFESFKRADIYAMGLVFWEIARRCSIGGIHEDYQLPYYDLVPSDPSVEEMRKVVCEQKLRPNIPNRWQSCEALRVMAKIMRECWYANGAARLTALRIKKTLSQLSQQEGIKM
structure (smiles),measurement,setting,value
O=C(NCCCN1CCCC1=O)c1cnccc1Nc1nc(-c2cc(Br)ccc2F)nc2nccnc12,Activity,Hepatitis C virus [1],Active
same,EC50,Hepatitis C virus [2],64 nM
same,CC50,[3],> 32 µM
same,CC50,[4],> 32 µM
same,Activity,[5],inactive
same,IC50,[6],37 nM
same,IC50,[7],59 nM
same,IC50,[8],47 nM
same,IC50,[9],140 nM
same,IC50,[10],123 nM
same,Activity,Hepatitis C virus [11],inactive
same,concentration at 0.5 h,[12],220 ng/mL
same,concentration at 0.5 h,[13],678 ng/mL
same,concentration at 0.5 h,[14],4060 ng/mL
same,concentration at 1 h,[15],166 ng/mL
same,concentration at 1 h,[16],557 ng/mL
same,concentration at 1 h,[17],2940 ng/mL
same,concentration at 2 h,[18],21.7 ng/mL
same,concentration at 2 h,[19],92.9 ng/mL
same,concentration at 4 h,[20],20.3 ng/mL
same,concentration at 2 h,[21],611 ng/mL
same,concentration at 4 h,[22],83.6 ng/mL
same,concentration at 4 h,[23],627 ng/mL
same,concentration at 8 h,[24],5.52 ng/mL
same,concentration at 8 h,[25],29.1 ng/mL
same,concentration at 8 h,[26],201 ng/mL
same,concentration at 24 h,[27],< 0.5 ng/mL
same,concentration at 24 h,[28],5 ng/mL
same,Cmax,[29],220 ng/mL
same,Cmax,[30],678 ng/mL
same,Cmax,[31],4060 ng/mL
same,Tmax,[32],30 min
same,Tmax,[33],30 min
same,Tmax,[34],30 min
same,half-life,[35],174 min
same,half-life,[36],204 min
same,half-life,[37],210 min
same,AUC(0-t) at 8 h,[38],309 ng·h/mL
same,AUC(0-t) at 8 h,[39],1120 ng·h/mL
same,AUC(0-t) at 8 h,[40],6960 ng·h/mL
same,AUC(0-inf),[41],332 ng·h/mL
same,AUC(0-inf),[42],1260 ng·h/mL
same,AUC(0-inf),[43],7970 ng·h/mL
same,Activity,Hepatitis C virus [44],inactive
same,IC50,[45],> 30 µM
same,IC50,[46],> 30 µM
same,IC50,[47],10.5 µM
same,IC50,TGF-beta receptor type-1,3.2 nM
Cc1cnccc1Nc1nc(-c2cc(Br)ccc2F)nc2nccnc12,EC50,Hepatitis C virus [2],800 nM
same,CC50,[3],> 32 µM
same,CC50,[4],> 32 µM
COc1cnc(-c2cc(Cl)ccc2F)nc1Nc1ccncc1C(=O)NCCCN1CCOCC1,EC50,Hepatitis C virus [2],2500 nM
same,CC50,[3],15.4 µM
same,CC50,[4],17.1 µM
COc1cnc(-c2cc(Cl)ccc2F)nc1Nc1ccncc1C(=O)NCCCn1ccnc1,EC50,Hepatitis C virus [2],920 nM
same,CC50,[3],8.1 µM
same,CC50,[4],15.3 µM
Fc1ccc(Cl)cc1-c1nc(Nc2ccncc2)c2nccnc2n1,EC50,Hepatitis C virus [2],890 nM
same,CC50,[3],> 25 µM
same,CC50,[4],> 25 µM
Clc1cccc(-c2nc(Nc3ccncc3)c3nccnc3n2)c1,EC50,Hepatitis C virus [2],1670 nM
same,CC50,[3],> 32 µM
same,CC50,[4],> 32 µM
Fc1ccc(Br)cc1-c1nc(N(Cc2ccccc2)c2ccncc2)c2nccnc2n1,EC50,Hepatitis C virus [2],990 nM
same,CC50,[3],> 32 µM
same,CC50,[4],> 32 µM
Cc1ccccc1Nc1nc(-c2cc(Br)ccc2F)nc2nccnc12,EC50,Hepatitis C virus [2],6400 nM
same,CC50,[3],> 32 µM
same,CC50,[4],> 32 µM
Oc1nc(-c2cc(Cl)ccc2F)nc2nccnc12,EC50,Hepatitis C virus [2],> 50000 nM
same,CC50,[3],> 25 µM
same,CC50,[4],> 25 µM
COc1cnc(-c2cc(Cl)ccc2F)nc1Nc1ccncc1C(=O)NCCCN(C)C,EC50,Hepatitis C virus [2],590 nM
same,CC50,[3],5 µM
same,CC50,[4],15.8 µM
Cc1cnccc1Nc1nc(-c2cc(Cl)ccc2F)nc2nccnc12,EC50,Hepatitis C virus [2],2000 nM
same,CC50,[3],> 32 µM
same,CC50,[4],> 32 µM
COc1cnc(-c2cc(Cl)ccc2F)nc1Nc1ccncc1C(=O)NC1CCN(C(=O)OC(C)(C)C)CC1,EC50,Hepatitis C virus [2],1000 nM
same,CC50,[3],3.9 µM
same,CC50,[4],4 µM
CCCCN(c1ccncc1)c1nc(-c2cc(Br)ccc2F)nc2nccnc12,EC50,Hepatitis C virus [2],2200 nM
same,CC50,[3],> 32 µM
same,CC50,[4],> 32 µM
Fc1ccccc1-c1nc(Nc2ccncc2)c2nccnc2n1,EC50,Hepatitis C virus [2],9950 nM
same,CC50,[3],> 25 µM
same,CC50,[4],> 25 µM
COc1cnc(-c2cc(Cl)ccc2F)nc1Nc1ccncc1C(=O)NCCN,EC50,Hepatitis C virus [2],3600 nM
same,CC50,[3],4.7 µM
same,CC50,[4],5.5 µM
